# Data: US7553972B2, “Benzamide inhibitors of the P2X7 receptor” (Pfizer, Inc., priority 2003, dated 2009)
# Target: T1, P2X7 receptor (Homo sapiens, UniProt Q99572)
# T1 construct: endogenous in cells
# T1 sequence (Q99572 1-595): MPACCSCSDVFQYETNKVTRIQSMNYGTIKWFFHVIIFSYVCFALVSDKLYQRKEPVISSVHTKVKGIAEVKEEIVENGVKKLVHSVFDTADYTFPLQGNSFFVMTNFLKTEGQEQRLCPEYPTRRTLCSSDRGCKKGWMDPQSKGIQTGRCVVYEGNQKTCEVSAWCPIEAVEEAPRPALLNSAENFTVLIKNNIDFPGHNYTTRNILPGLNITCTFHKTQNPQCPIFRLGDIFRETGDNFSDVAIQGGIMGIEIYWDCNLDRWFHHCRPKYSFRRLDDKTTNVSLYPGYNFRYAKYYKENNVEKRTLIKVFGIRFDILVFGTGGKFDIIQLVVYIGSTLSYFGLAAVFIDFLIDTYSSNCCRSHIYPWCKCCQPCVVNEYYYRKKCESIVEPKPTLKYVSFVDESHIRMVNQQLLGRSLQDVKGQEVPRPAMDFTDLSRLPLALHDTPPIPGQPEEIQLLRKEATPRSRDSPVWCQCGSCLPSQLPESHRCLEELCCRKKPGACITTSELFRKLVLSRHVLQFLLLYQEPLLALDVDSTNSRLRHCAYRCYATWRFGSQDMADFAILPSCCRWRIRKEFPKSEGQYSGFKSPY
# Experiment: Inhibition of ATP-stimulated IL-1β release from LPS-activated blood monocytes (P2X7 antagonist activity, ELISA readout)
# Format: cell-based
# Settings: monocytes from normal volunteers, 10 ng/ml LPS 2 h, compound 30 min, 2 mM ATP 3 h, IL-1β by ELISA, triplicate wells; read-out: IC50 (inhibit 50% of the stimulation of the release of IL-1β from monocytes by ATP)
# Description: In like manner, the compounds of the invention can be tested for antagonist activity at the P2X7 receptor using the cytokine IL-1β as the readout. Blood collected from normal volunteers in the presence of heparin is fractionated using lymphocyte separation medium obtained from Organon Technica (Westchester, Pa.). […] The resulting cell pellet was suspended in 10 ml of Maintenance Medium and a cell count was performed. In an average experiment, 2×10^5 mononuclear cells are seeded into each well of 96-well plates in a total volume of 0.1 ml. Monocytes are allowed to adhere for 2 hours, after which the supernatants are discarded and the attached cells are rinsed twice and then incubated in Maintenance Medium overnight at 37° C. in a 5% CO2 environment.
# (§1) The cultured monocytes can be activated with 10 ng/ml LPS (E. coli serotype 055:B5; Sigma Chemicals, St. Louis, Mo.). […] ATP then is introduced (from a 100 mM stock solution, pH 7) to achieve a final concentration of 2 mM and the plate is incubated at 37° C. for an additional 3 hours. Media were harvested and clarified by centrifugation, and their IL-1[…] content was determined by ELISA (R&D Systems; Minneapolis, Minn.).
# Blood was collected from normal volunteers in the presence of heparin, and was fractionated using lymphocyte separation medium obtained from Organon Technica (Westchester, Pa.). […] The resulting cell pellet was suspended in 10 ml of Maintenance Medium and a cell count was performed. Approximately, 2×10^5 mononuclear cells were seeded into each well of 96-well plates in a total volume of 0.1 ml. Monocytes were allowed to adhere for 2 hours, after which the supernatants were discarded and the attached cells were rinsed twice and then incubated in Maintenance Medium overnight at 37° C. in a 5% CO2 environment.
# as §1, with “monocytes were” for “monocytes can be”, “then was” for “then is”, “plate was” for “plate is”, “their IL-1β” for “their IL-1[…]”
row,SMILES,IC50
1,"COC[C@H](O)Cn1nc(-c2ccc(Cl)c(C(=O)NCC3(O)CCCCCC3)c2)cc1C (stereo in doubt) [Example 39, 2-Chloro-N-(1-hydroxy-cycloheptylmethyl)-5-[1-(2-hydroxy-3-methoxy-propyl)-5-methyl-1H-pyrazol-3-yl]-benzamide]",8 nM
2,"Cc1ccc(C2(CNC(=O)c3cc(-c4ccc(C)nc4)ccc3Cl)CCCCC2)cc1 [Example 1, 2-Chloro-5-(6-methyl-pyridin-3-yl)-N-(1-p-tolyl-cyclohexylmethyl)-benzamide]",29 nM
3,"Cc1ccc(-c2ccc(Cl)c(C(=O)NCC3(O)CCCC(C)(C)C3)c2)nc1 (centres unmarked) [Example 2, 2-Chloro-N-(1-hydroxy-3,3-dimethyl-cyclohexylmethyl)-5-(5-methyl-pyridin-2-yl)-benzamide]",11 nM
4,"COc1ccc(-c2ccc(Cl)c(C(=O)NCC3(O)CCCCCC3)c2)nn1 [Example 4, 2-Chloro-N-(1-hydroxy-cycloheptylmethyl)-5-(6-methoxy-pyridazin-3-yl)-benzamide]",280 nM
5,"O=C(NCC1(O)CCCCCC1)c1cc(-c2ccc(=O)[nH]n2)ccc1Cl [Example 5, 2-Chloro-N-(1-hydroxy-cycloheptylmethyl)-5-(6-oxo-1,6-dihydro-pyridazin-3-yl)-benzamide]",930 nM
6,"COc1ccc(Cn2cc(-c3ccc(Cl)c(C(=O)NCCc4ccccc4Cl)c3)cn2)cc1 [Example 6, 2-Chloro-N-[2-(2-chloro-phenyl)-ethyl]-5-[1-(4-methoxy-benzyl)-1H-pyrazol-4-yl]-benzamide]",1400 nM
7,"Cc1ccc(-c2ccc(Cl)c(C(=O)NCCc3ccccc3Cl)c2)nc1 [Example 7, 2-Chloro-N-[2-(2-chloro-phenyl)-ethyl]-5-(5-methyl-pyridin-2-yl)-benzamide]",1660 nM
8,"COc1ccc(-c2ccc(Cl)c(C(=O)NCCc3ccccc3Cl)c2)nn1 [Example 8, 2-Chloro-N-[2-(2-chloro-phenyl)-ethyl]-5-(6-methoxy-pyridazin-3-yl)-benzamide]",525 nM
9,"O=C(NCCc1ccccc1Cl)c1cc(-c2cn[nH]c2)ccc1Cl [Example 10, 2-Chloro-N-[2-(2-chloro-phenyl)-ethyl]-5-(1H-pyrazol-4-yl)-benzamide]",800 nM
10,"Cc1cc(-c2ccc(Cl)c(C(=O)NCC3(O)CCCCCC3)c2)on1 [Example 12, 2-Chloro-N-(1-hydroxy-cycloheptylmethyl)-5-(3-methyl-isoxazol-5-yl)-benzamide]",240 nM
11,"Cc1cc(-c2ccc(Cl)c(C(=O)NCC3(O)CCCC(C)(C)C3)c2)[nH]n1 (centres unmarked) [Example 13, 2-Chloro-N-(1-hydroxy-3,3-dimethyl-cyclohexylmethyl)-5-(5-methyl-2H-pyrazol-3-yl)-benzamide]",8 nM
12,"Cc1cc(-c2ccc(Cl)c(C(=O)NCC3(O)CCCC(C)(C)C3)c2)on1 (centres unmarked) [Example 14, 2-Chloro-N-(1-hydroxy-3,3-dimethyl-cyclohexylmethyl)-5-(3-methyl-isoxazol-5-yl)-benzamide]",81 nM
13,"CCc1cc(-c2ccc(Cl)c(C(=O)NCC3(O)CCCCCC3)c2)[nH]n1 [Example 15, 2-Chloro-5-(5-ethyl-2H-pyrazol-3-yl)-N-(1-hydroxy-cycloheptylmethyl)-benzamide]",23 nM
14,"CCc1cc(-c2ccc(Cl)c(C(=O)NCCc3ccccc3Cl)c2)[nH]n1 [Example 16, 2-Chloro-N-[2-(2-chloro-phenyl)-ethyl]-5-(5-ethyl-2H-pyrazol-3-yl)-benzamide]",370 nM
15,"Cc1ccc(C2(CNC(=O)c3cc(-c4cc[nH]n4)ccc3Cl)CCCCC2)cc1 [Example 17, 2-Chloro-5-(1H-pyrazol-3-yl)-N-(1-p-tolyl-cyclohexylmethyl)-benzamide]",18 nM
16,"O=C(NCCc1ccccc1Cl)c1cc(-c2cc[nH]n2)ccc1Cl [Example 18, 2-Chloro-N-[2-(2-chloro-phenyl)-ethyl]-5-(1H-pyrazol-3-yl)-benzamide]",545 nM
17,"O=C(NCC1(O)CCCCCC1)c1cc(-c2cc[nH]n2)ccc1Cl [Example 19, 2-Chloro-N-(1-hydroxy-cycloheptylmethyl)-5-(1H-pyrazol-3-yl)-benzamide]",180 nM
